“Also recorded” adds a separate entry of the source.
What was measured:
[1] = system: aerugine (10 μM) cytotoxicity in LUHMES cultures (d6); test: Modulation of aerugine-induced neurodegeneration by mechanistic inhibitors; type: cell-based, human; details: 24 h; for maximal prevention of aerugine neurotoxicity / prevention of aerugine-induced cell death (viability): inhibitor 15 min prior to 10 μM aerugine
Method: (§1) For toxicity assessment of mature LUHMES neurons, precursor cells were pre-differentiated for 2 days in cell culture flasks pre-coated as described above and differentiation medium. Then, 45′000 cells per well were seeded in differentiation medium into standard 96-well plates pre-coated as described above. They were incubated at 37 °C and 5% CO2 for 4 days before compound treatment. At this time, cells were >99% post-mitotic and had established an extensive neurite network ([Scholz et al., 2011]) The cell viability was assessed via the Calcein/Hoechst readout, the LDH assay and the resazurin reduction assay.
(§2) Neurite area (NA) and viability (V) were assessed as described previously ([Stiegler et al., 2011]). In brief, cells were stained with 1 μM calcein-AM and 1 μg/ml H-33342 for 30 min at 37 °C and 5% CO2. Image acquisition was performed using an Array-Scan VTI HCS Reader (Cellomics, PA, USA) equipped with a Hamamatsu ORCA-ER camera. 10 fields per well were imaged with 2 channels at 20x magnification (2×2 pixel binning). Excitation/emission wavelengths of 365 ± 50/535 ± 45 nm were used for Hoechst detection in channel 1 and 474 ± 40/535 ± 45 nm were used for calcein detection in channel 2.
Fig. 4. Modulation of aerugine-induced neurodegeneration by mechanistic inhibitors. LUHMES cultures (d6) were used under standard conditions to assess the cytotoxicity of aerugine (10 μM) in the presence of various agents known to interfere with cell death pathways. A Treatment scheme: the respective inhibitors were applied 15 min prior to aerugine treatment (10 μM), and the viability was determined by high-content imaging after 24 h. B Inhibitors were used at different concentrations, as indicated. The main biochemical activity of each agent is indicated in brackets. Data are means ± SEM of at least three biological replicates with 3 technical replicates each. DFP = deferiprone; DFO = deferoxamine; qVD = caspase inhibitor; RIPK = receptor-interacting serine/threonine-protein kinase. For statistical analysis, the lowest concentration of inhibitor that produced the maximal protective effect (red) was compared to the treatment with aerugine alone using a two-tailed t-test (*: p = 0.01). C Exemplary pictures of LUHMES cultures after 24 h treatment: negative control (=DMSO), positive control (=10 μM aerugine), DFP (=20 μM DFP + 10 μM aerugine) and qVD (=5 μM qVD + 10 μM aerugine). Arrows indicate cells with a broken cell membrane (calcein-negative) and condensed nuclei (small H-33342-positive area). Arrow heads indicate disintegrating neurites (chains of calcein-positive blebs).

[2] = system: human dopaminergic neurons (LUHMES cells); test: Cytotoxicity to mature (d6) LUHMES neurons, calcein-AM & H-33342 high content imaging; type: cell-based; details: d6 LUHMES; for cytotoxicity to DAergic neurons (viability): 24 h (24 h and 48 h for purified compounds)
Method: as §1, §2
Nuclei were identified in channel 1 depending on intensity, area, size and shape. Their outlines were expanded by 3.2 μm to define a virtual cell soma area (VCSA), which was bigger than the average cell soma to prevent false positive NAs. All calcein-positive pixels were defined as viable cellular structures (VCSs). The NA was automatically calculated by excluding the VCSAs from the VCSs. Furthermore all nuclei co-localizing with VCSs were defined as alive.

SMILES: N[C@@H](CS)C(=O)O [cysteine]
- maximal prevention of aerugine neurotoxicity [1]: 60–90%

SMILES: O=Cc1csc(-c2ccccc2O)n1 [IQS, aeruginealdehyde]
- cytotoxicity to DAergic neurons (viability) [2]: about equipotent with aeruginol
- concentration range killing DAergic neurons ([2]; within 24 h): 10 to 25 µM

SMILES: O=c1c2ccccc2[se]n1-c1ccccc1 [ebselen]
- maximal prevention of aerugine neurotoxicity [1]: 60–90%

SMILES: CCOC(=O)c1ccc(NC2CCCCC2)c(N)c1 [ferrostatin]
- maximal prevention of aerugine neurotoxicity [1]: 60–90%

SMILES: O=CC1CSC(c2ccccc2O)=N1 (stereo not shown) [dhIQS, dihydro-aeruginealdehyde]
- cytotoxicity to DAergic neurons (viability) [2]: all toxicity was lost

SMILES: O=C(O)C1CSC(c2ccccc2O)=N1 (stereo not shown) [DHAA, Dihydroaeruginoic acid, reference compound]
- cytotoxicity to DAergic neurons (viability) [2]: all toxicity was lost

SMILES: N[C@@H](Cc1ccc(O)c(I)c1)C(=O)O [3-iodo-tyrosine]
- prevention of aerugine-induced cell death (viability) [1]: had no effect at all

SMILES: CN1C(=O)C(Cc2c[nH]c3ccccc23)NC1=S (stereo not shown) [necrostatin-1]
- prevention of aerugine-induced cell death (viability) [1]: only slightly attenuated cell death

SMILES: CC(C)[C@H](NC(=O)c1ccc2ccccc2n1)C(=O)N[C@@H](CC(=O)O)C(=O)COc1c(F)cccc1F [qVD]
- neurite structure in presence of inhibitor ([1]; 10 μM aerugine): damage to the neurites still occurred and lost
- optimal concentrations for prevention of cell death ([1]; 10 μM aerugine): 2 to 4 µM
- prevention of aerugine-induced cell death (viability) [1]: completely prevented; also recorded: prevented cell death

SMILES: OCc1csc(-c2ccccc2O)n1 [aeruginol]
- cytotoxicity to DAergic neurons (viability) [2]: cytotoxic to DAergic neurons in a time- and concentration-dependent manner

From publication PMC10666548, “Identification of the bacterial metabolite aerugine as potential trigger of human dopaminergic neurodegeneration” (Environment international, 2023)
